Where two headings read alike, the source gives them in different places.
What was measured:
[1] = test system: IL-8 production in U937 cells infected with influenza A virus A/PuertoRico/8/1934; test: IL-8 production in influenza-infected U937 cells (AlphaLISA); format: cell-based, human; conditions: read-out: EC50 IL-8
[2] = test system: IP-10 production in U937 cells infected with influenza A virus A/PuertoRico/8/1934; test: cells; format: cell-based
[3] = test system: MCP-1 production in U937 cells infected with influenza A virus A/PuertoRico/8/1934; test: MCP-1 production in influenza-infected U937 cells (AlphaLISA); format: cell-based, human; conditions: read-out: EC50 MCP-1
in vitro = conditions: human
[4] = test system: influenza A virus (A/PR/8/34); test: Mouse lethal influenza model: survival and body weight; format: in vivo, BALB/c mice; conditions: for Body weight loss: started 2 h after infection; for Survival rate: started 2 h after infection with 500 TCID50, monitored to day 20
[5] = test system: influenza A virus (A/PR/8/34); test: Inflammatory cell infiltration in lungs/BALF of infected mice (histology, flow cytometry); format: in vivo, BALB/c mice; conditions: 15 mg/kg oral from day 3
Description: BALF samples were washed with FACS buffer (10% BSA in PBS). Red blood cells were lysed using ammonium chloride and […] were seeded into a 96-well U-bottom plate. Cells were pre-incubated with anti-FcgRIII/II (Fc block) in FACS buffer before a 30-min incubation with the following fluorochrome-labeled antibodies (Biolegend): PE-Cy7-conjugated Ly6C (clone HK1.4, dilution 1:200), PE-conjugated CD11b (clone M1/70, dilution 1:200), APC-conjugated Ly6G (clone 1A8, dilution 1:200), and FITC-conjugated CD11c (clone N418, dilution 1:100). Cells were washed with phosphate-buffered saline twice and counterstained with 7AAD (Biolegend) to differentiate apoptotic and dead cells and then analyzed using a LSR Fortessa (Becton Dickinson).
Whole lungs were perfused with 10% neutral buffered formaldehyde in situ. Tissues were then fixed overnight in 10% neutral buffered formaldehyde, embedded in paraffin, and sectioned. Lung specimens were stained with hematoxylin and eosin and then subjected to gross and microscopic pathologic analysis.
Mice were infected as described in Figure 2. […] (A) Hematoxylin & eosin-stained mouse lung sections (scale bar 200 μm) harvested at day 7 post-infection. (B) BALFs were collected from placebo and ponatinib-treated mice (n = 3 per group at each time point) starting day 3 post-infection to monitor total cell counts (mean ± SEM) on days 5 and 7 post-infection. The data are representative of at least three independent experiments.*p < 0.05; **p < 0.01.

[6] = test system: pro-inflammatory cytokines in BALF; design: species or system BALB/c mice; conditions: mouse, in vivo
[7] = test system: influenza A virus (A/PR/8/34); test: Viral titers in BALF of infected mice (TCID50 assay using MDCK cells); format: in vivo, BALB/c mice
[8] = test system: PR8 strain of influenza virus; test: In vitro antiviral assays in U937, A549 cells and murine PCLS; format: cell-based
[9] = test system: MCP-1, KC, IP-10 and IL-6 production in PCLS infected with influenza; test: Cytokine production in influenza-infected murine precision-cut lung slices (PCLS); format: cell-based, mouse
phospho-p38 = format: cell-based, human
IFN-α = IFN-α levels in influenza virus-infected U937 cells; format: cell-based, human
[10] = cited from earlier work
[11] = Homo sapiens, U-937, PR8 MOI = 0.1, 48 h
[12] = U937 cells, PR8 MOI = 0.1, 48 h

## Cc1ccc2nc(NCCN)c3ncc(C)n3c2c1 [BMS-345541]
[1]; Homo sapiens, U-937, 48 h
  EC50: 11.7 µM
[2]; [11]
  EC50: 4.6 µM
[3]; Homo sapiens, U-937, 48 h
  EC50: 3.6 µM
In vitro
  CC50: 3.9 µM

## Cc1cn(-c2cc(NC(=O)c3ccc(C)c(Nc4nccc(-c5cccnc5)n4)c3)cc(C(F)(F)F)c2)cn1 [Nilotinib]
[1]; Homo sapiens, U-937, 48 h
  EC50: 0.4 µM
[2]; [11]
  EC50: 1.1 µM
[3]; Homo sapiens, U-937, 48 h
  EC50: 1.5 µM
In vitro
  CC50: 5.4 µM

## CC(C)(C)n1nc(-c2ccc(Cl)cc2)c2c(N)ncnc21 [PP2]
[1]; [12]
  EC50: > 100 µM
[2]; PR8 MOI = 0.1, 48 h
  EC50: 3.3 µM
[3]; [12]
  EC50: 10.4 µM
U937 cells
  CC50: 40.3 µM

## Cc1ccc(C(=O)Nc2ccc(CN3CCN(C)CC3)c(C(F)(F)F)c2)cc1C#Cc1cnc2cccnn12 [Ponatinib]
[1]; Homo sapiens, U-937, 48 h
  EC50: 0.3 µM
[3]; Homo sapiens, U-937, 48 h
  EC50: 0.4 µM
[4]; 5 mg/kg/d oral
  Body weight loss: improvement in body weight loss decreased significantly compared to the middle dose group
  Survival rate: 20%
[4]; 15 mg/kg oral, started on days 1, 2, 3 or 4 post-infection until day 6
  Body weight loss, delayed administration: slowed down significantly
[4]; 15 mg/kg oral, started on days 3 and 4 post-infection until day 6
  Survival rate, delayed administration: higher survival rates than those treated starting on days 1 and 2
[4]; 15 mg/kg/d oral
  Survival rate: 50%
[4]; 15 mg/kg/d oral, days 3 to 5
  Body weight loss: least decline in body weight
[4]; 25 mg/kg/d oral
  Body weight loss: improvement of body weight loss was not observed at all
  Survival rate: 30%
[5]; day 7 post-infection, vs placebo
  Inflammatory infiltrates in the lungs (histology): fewer inflammatory infiltrates
[5]; days 5 and 7 post-infection
  Infiltration of neutrophils in BALF: greatly reduced
  Monocyte infiltration in BALF: not affected
[6]
  Concentrations of IL-6, IL-10, MCP-1, Eotaxin, IL-12 (p40) and MIP-1β in BALF: not affected
  Expression levels of cytokines and chemokines in BALF (of 17 increased by infection): 14 cytokines and chemokines were attenuated
  IFN-α levels in BALF vs placebo: higher on day 3 and lower on day 5 post-infection
  Inhibition of cytokines in BALF except IL-6 and CCL-5, late phase: minor
  Inhibition of cytokines in BALF, early phase: no cytokines were inhibited
  Levels of Eotaxin, G-CSF, MCP-1, IL-10, TNF-α and IP-10 in BALF: elevated
  Levels of type I IFNs in BALF and serum: reduce the levels of type I IFNs
  Production of cytokines and chemokines in BALF: 8 cytokines and chemokines was reduced
[7]; 15 mg/kg oral from day 0 (simultaneously with infection)
  Viral titers in BALF vs placebo: significantly higher at day 3 and slightly higher at day 7
[7]; 15 mg/kg oral from day 3, days 5 and 7 post-infection
  Virus titers in BALF vs placebo: no difference
[8]
  Replication of PR8 influenza virus in vitro: did not inhibit the replication
[9]
  MCP-1, KC, IP-10 and IL-6 productions in infected PCLS: dose-dependently
phospho-p38
  Phosphorylation of p38: downregulated
IFN-α
  Levels of IFN-α: downregulate
[10]; clinical trials
  Median time to first onset of pancreatitis: 14 days
[10]; patients, long-term treatment
  Median time to initial onset of arterial occlusive events: 13.4 months

## CNC(=O)c1cc(Oc2ccc(NC(=O)Nc3ccc(Cl)c(C(F)(F)F)c3)cc2)ccn1 [Sorafenib]
[1]; Homo sapiens, U-937, 48 h
  EC50: 0.7 µM
[2]; [11]
  EC50: 3.7 µM
[3]; Homo sapiens, U-937, 48 h
  EC50: 5.8 µM
In vitro
  CC50: 20.7 µM

## Nc1cccc(-c2cc3c(Oc4cccc(O)c4)ncnc3[nH]2)c1 [TWS119]
[1]; [12]
  EC50: 9 µM
[2]; PR8 MOI = 0.1, 48 h
  EC50: 8.5 µM
[3]; [12]
  EC50: 8 µM
U937 cells
  CC50: 5.4 µM
